What was measured:
[1] = tested on: circulating monocytes, neutrophils and platelets; assay: Flow cytometry of circulating leukocytes and platelets in inflammatory arthritis; type: in vivo, mice; conditions: 0.2 mg/Kg days 3, 5, 7; blood day 8, vs vehicle
E. coli infections = conditions: atorvastatin and RvTs, additive actions; cited from earlier work
[2] = tested on: 13-series resolvins (RvT) and eicosanoids; conditions: blood 2 h after last statin dose on day 7
[3] = tested on: 13-series resolvins (RvT); assay: Lipid mediator profiling (LC-MS/MS) of paws in K/BxN serum inflammatory arthritis; type: in vivo, mice; conditions: for increase in overall RvT amounts in joints/paws compared with vehicle: paws collected day 8, 24 h after last dose
Method: (§1) JCI Insight. 2016; 1(5):e85922.
(§2) Blood and paws were collected either on day 8 after arthritis onset or 2 h after statin injection on day 7.
Ice-cold methanol containing 500 pg of each deuterated (d) internal standard: d8-SSHydroxyeicosatetraenoic, d4-Leukotriene (LT) B4, d5-Lipoxin (LX) A4, d-Prostaglandin (PG) E2 and d5-Resolvin D2, was added to samples. […] J Clin Invest. 2017; 127(1):169-182.
Using multiple reaction monitoring the concentrations of mediators identified in these paws were quantified.

[4] = tested on: joint non-classical monocytes, neutrophils and monocyte-derived macrophages; assay: Flow cytometry of leukocytes isolated from inflamed paws/joints; type: in vivo, mice; conditions: paws day 8, vs vehicle
Method: Front paws were collected on day 8 and digested to liberate infiltrating leukocytes. Leukocyte subsets were defined using antibodies against specific markers and flow cytometry. Trafficking and activation of (A) non-classical monocytes, (B) neutrophils, (C) monocyte-derived macrophages were assessed.
as §1
Paws were harvested and leukocytes isolated as described in Dalli J et al. 2015 (ibid). Briefly, paws were incubated in RPMI-1640 (containing […] collagenase D and 40 µg/mL DNAse I) at 37° C. for 30 minutes with vigorous agitation. Isolated cells were passed through a […] strainer and suspended in RPMI-1640 containing […] and 10% FBS, then centrifugated at 400×g, 10 minutes. Isolated cells were suspended in DPBS−/− containing 0.02% BSA and 1% Fc-blocking IgG (v/v), and incubated with 0.1% Live/Dead stain for 20 minutes on ice. Cells were washed using DPBS−/− and incubated with fluorescent-labelled antibodies for 45 minutes on ice. These were then washed and fixed using 1% paraformaldehyde. Absolute counting beads were used for leukocyte enumeration. Staining was then evaluated using a flow cytometry analyser and analysed using suitable software.
First, the trafficking of non-classical monocytes to the inflamed joints was assessed, given their role in disease onset and propagation of K/B×N serum initiated inflammatory arthritis.

Male C57BL/6 mice = assay: K/BxN serum inflammatory arthritis: 26-point clinical score, paw swelling, knee H&E histology; type: in vivo; conditions: 0.2 mg/Kg days 3, 5, 7
Method: Male C57BL/6 mice (11 weeks old) were procured from Charles River (Kent, UK). All animals were provided with standard laboratory diet and water ad libitum and kept on a 12 h light/dark cycle.
as §1, §2
Arthritis was initiated and mice were treated and disease progression monitored as described above.

[5] = clearance from the circulation; cited from earlier work
[6] = celecoxib 10 mg/Kg 1 h prior to pravastatin or atorvastatin, paws day 8

SMILES: CC(C)c1c(C(=O)Nc2ccccc2)c(-c2ccccc2)c(-c2ccc(F)cc2)n1CC[C@@H](O)C[C@@H](O)CC(=O)O [atorvastatin]
- neutrophil CD11b expression (circulating) [1]: significantly reducing
- reduction in CD11b expression on circulating classical monocytes [1]: regulated
- reduction in CD11b expression on circulating non-classical monocytes [1]: regulated
- reduction in platelet CD62P expression [1]: ~60%
- reduction in platelet-monocyte aggregates (both monocyte subsets) [1]: regulated
- reduction in platelet-neutrophil aggregates [1]: significantly reducing
- increased survival (E. coli infections): > 60%
- decrease in circulating PGD2 [2]: decreased
- decrease in circulating PGE2 [2]: decreased
- increase in overall RvT amounts in joints/paws compared with vehicle ([3]; 0.2 mg/Kg i.v. days 3, 5, 7): 43%
- individual RvT increased in paws compared with vehicle ([3]; 0.2 mg/Kg i.v. days 3, 5, 7, paws day 8): increased RvT1, RvT2, RvT3 and RvT4
- reduction in total numbers of non-classical monocytes recruited to the joints ([4]; 0.2 mg/Kg days 3, 5, 7): > 60%
- CD11b expression on joint non-classical monocytes ([4]; 0.2 mg/Kg): reduction
- MHCII expression on joint non-classical monocytes ([4]; 0.2 mg/Kg): significant reduction
- joint neutrophil CD11b and MHCII expression ([4]; 0.2 mg/Kg): did not reach statistical significance
- neutrophil trafficking to the joint ([4]; 0.2 mg/Kg): decreased
- number of monocyte-derived macrophages in joints and their CD11b and MHCII expression ([4]; 0.2 mg/Kg): significant reduction
- joint swelling (midfoot pad thickness) (Male C57BL/6 mice): reduced joint swelling
- H&E knee joint sections: leukocyte infiltration, pannus formation and joint damage (Male C57BL/6 mice; day 8, vs vehicle): reduced leukocyte infiltration, pannus formation and joint damage
- maximum disease score (26-point clinical score) (Male C57BL/6 mice; maximum at day 5): 9.1±1.2

SMILES: Cc1ccc(-c2cc(C(F)(F)F)nn2-c2ccc(S(N)(=O)=O)cc2)cc1 [celecoxib]
- reduction in joint RvT1 concentration compared to statin alone [3, 6]: > 75%
- reduction in joint RvT compared to statin alone [3, 6]: ~60%

SMILES: CC[C@H](C)C(=O)O[C@H]1C[C@H](O)C=C2C=C[C@H](C)[C@H](CC[C@@H](O)C[C@@H](O)CC(=O)O)[C@H]21 [pravastatin]
- reduction in CD11b expression on circulating classical monocytes [1]: ~40%
- reduction in CD11b expression on circulating non-classical monocytes [1]: ~10%
- reduction in platelet CD62P expression [1]: ~70%
- reduction in platelet-monocyte aggregates (both monocyte subsets) [1]: ~35%
- reduction in platelet-neutrophil aggregates [1]: ~25%
- half-life [5]: ~3 h
- decrease in circulating PGD2 [2]: ~46%
- decrease in circulating PGE2 [2]: ~29%
- increase in plasma/peripheral blood RvT compared with vehicle [2]: > 100%
- increase in overall RvT amounts in joints/paws compared with vehicle ([3]; 0.2 mg/Kg i.v. days 3, 5, 7): ~20%
- reduction in disease activity compared with vehicle (Male C57BL/6 mice; day 5 through day 7): ~23%

Source: patent US11531036B2, “Method and apparatus for determining the efficacy of statins for treating inflammatory diseases in individual patients” (Queen Mary University of London, priority 2017, dated 2022)
